Test results taken from patent US11919912B2, “Modulators of methyl modifying enzymes, compositions and uses thereof” (Constellation Pharmaceuticals, Inc., priority 2018, dated 2024).

What was measured:
[1] = target: T1, PRC2 containing wt EZH2 (Homo sapiens, UniProt Q15910); assay: EZH2 biochemical assay (IC50), incorporation of 3H-SAM into a biotinylated H3 peptide; conditions: 30 pM PRC2 (wt EZH2, pentameric complex), pre-incubated 3-5 h, reaction 18-22 h
T1 construct: made in house
Description: EZH2 biochemical assay (IC50): Compound potencies were assessed through incorporation of ^3H-SAM into a biotinylated H3 peptide. […] Quenching was accomplished by addition of 20 μl of STOP solution (50 mM Tris (pH 8.5), 200 mM EDTA, 2 mM SAH). 35 μl of the quenched solution was transferred to streptavidin coated FlashPlates (PerkinElmer), incubated 1-2 h, washed, and read in a TopCount Reader (PerkinElmer).

[2] = tested on: H3K27me3 in Hela cells; assay: H3K27me3 Alpha Hela Assay (AlphaLISA); assay type: cell-based; conditions: Homo sapiens, 72 hrs
Description: H3K27me3 Alpha Hela Assay (AlphaLISA). Ten different doses of each test compound (in a series of 3-fold dilutions) were plated in duplicate 384-well tissue culture treated plates (Catalog #6007680; Perkin Elmer, Waltham, MA). Hela cells grown in culture were trypsinized and counted using a Countess® cell counter (Catalog #C10281; Life Technologies, Grand Island, NY). Cell were diluted to 67,000 cells per mL in10% DMEM (Catalog #10569-010 Life Technologies, Grand Island, NY) and 15 μL (1,000 cells) were plated into each well using the Biotek MicroFlo™ Select Dispenser (BioTek Instruments, Inc. Vermont, USA),) of the 384-well plate. Plates were incubated at 37° C./5% CO2 for 72 hrs. One of the duplicate plates was processed for HeLa assay and the other for viability. […] The plates were then read using an EnVision-Alpha Reader (model #2104 Perkin Elmer; Waltham, MA).
Cell viability was assayed by adding 15 μL of Cell Titer Glo ((Catalog #G9241 Promega Madison, WI) to each well with cells with media. The plates were incubated at RT for 15-20 minutes on a plate shaker at low speed. The plates were then read using an EnVision-Alpha Reader (model #2104 Perkin Elmer; Waltham, MA).

[3] = tested on: Karpas-422 cell lines; assay: Karpas-422 viability assay (Cell Titer-Glo); assay type: cell-based; conditions: Homo sapiens, Cell Titer-Glo on Day 8, cells split every 4 days
Description: Karpas-422 cell lines were obtained from DSMZ (Braunschweig, Germany) and were grown in RPMI-1640 media. All media contained 10% fetal bovine serum (FBS) and 1% penicillin/streptomycin (Invitrogen). 20K cells per well were plated onto 96 well compound coated plates. Cells were split and seeded at original plating density (based on the DMSO well counts) every 4 days into plates containing fresh EZH2 inhibitors. Relative cell numbers were assessed by Cell Titer-Glo luminescent cell viability assay (Promega) on Day 8. GraphPad Prism 5 was used for curve fitting and GI50 values were reported.

T1 sequence (Q15910 whole entry): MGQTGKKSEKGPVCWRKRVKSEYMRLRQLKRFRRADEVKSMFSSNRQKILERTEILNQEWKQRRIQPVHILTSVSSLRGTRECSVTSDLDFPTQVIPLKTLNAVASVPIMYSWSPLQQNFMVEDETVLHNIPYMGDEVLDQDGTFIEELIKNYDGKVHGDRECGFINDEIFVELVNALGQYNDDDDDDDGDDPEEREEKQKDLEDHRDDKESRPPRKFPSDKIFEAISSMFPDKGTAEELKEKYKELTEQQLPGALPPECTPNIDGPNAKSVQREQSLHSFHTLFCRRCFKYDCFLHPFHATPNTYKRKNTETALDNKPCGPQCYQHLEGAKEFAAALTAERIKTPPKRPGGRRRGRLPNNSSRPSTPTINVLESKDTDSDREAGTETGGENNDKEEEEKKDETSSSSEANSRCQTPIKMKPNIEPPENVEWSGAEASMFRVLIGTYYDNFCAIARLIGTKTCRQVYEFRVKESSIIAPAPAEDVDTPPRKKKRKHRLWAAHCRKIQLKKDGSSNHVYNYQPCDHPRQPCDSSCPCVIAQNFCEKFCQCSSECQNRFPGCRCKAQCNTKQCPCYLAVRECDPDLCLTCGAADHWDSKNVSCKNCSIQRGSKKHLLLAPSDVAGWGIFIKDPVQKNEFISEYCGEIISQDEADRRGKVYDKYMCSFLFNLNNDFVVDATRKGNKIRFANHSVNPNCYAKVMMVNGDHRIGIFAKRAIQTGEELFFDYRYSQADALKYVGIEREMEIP
T1 sequence (O75530 whole entry partner): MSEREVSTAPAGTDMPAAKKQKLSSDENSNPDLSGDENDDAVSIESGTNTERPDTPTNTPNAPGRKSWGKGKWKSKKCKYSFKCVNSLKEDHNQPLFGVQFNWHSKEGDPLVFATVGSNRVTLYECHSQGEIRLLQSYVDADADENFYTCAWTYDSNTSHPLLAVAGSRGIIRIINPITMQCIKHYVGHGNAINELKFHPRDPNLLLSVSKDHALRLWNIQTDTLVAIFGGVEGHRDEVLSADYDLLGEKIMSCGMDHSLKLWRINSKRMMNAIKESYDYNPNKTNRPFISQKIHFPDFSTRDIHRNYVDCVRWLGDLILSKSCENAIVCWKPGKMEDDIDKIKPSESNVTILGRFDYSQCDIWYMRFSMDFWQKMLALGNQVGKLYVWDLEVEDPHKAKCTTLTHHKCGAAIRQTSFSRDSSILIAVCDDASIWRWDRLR
T1 sequence (Q15022 whole entry partner): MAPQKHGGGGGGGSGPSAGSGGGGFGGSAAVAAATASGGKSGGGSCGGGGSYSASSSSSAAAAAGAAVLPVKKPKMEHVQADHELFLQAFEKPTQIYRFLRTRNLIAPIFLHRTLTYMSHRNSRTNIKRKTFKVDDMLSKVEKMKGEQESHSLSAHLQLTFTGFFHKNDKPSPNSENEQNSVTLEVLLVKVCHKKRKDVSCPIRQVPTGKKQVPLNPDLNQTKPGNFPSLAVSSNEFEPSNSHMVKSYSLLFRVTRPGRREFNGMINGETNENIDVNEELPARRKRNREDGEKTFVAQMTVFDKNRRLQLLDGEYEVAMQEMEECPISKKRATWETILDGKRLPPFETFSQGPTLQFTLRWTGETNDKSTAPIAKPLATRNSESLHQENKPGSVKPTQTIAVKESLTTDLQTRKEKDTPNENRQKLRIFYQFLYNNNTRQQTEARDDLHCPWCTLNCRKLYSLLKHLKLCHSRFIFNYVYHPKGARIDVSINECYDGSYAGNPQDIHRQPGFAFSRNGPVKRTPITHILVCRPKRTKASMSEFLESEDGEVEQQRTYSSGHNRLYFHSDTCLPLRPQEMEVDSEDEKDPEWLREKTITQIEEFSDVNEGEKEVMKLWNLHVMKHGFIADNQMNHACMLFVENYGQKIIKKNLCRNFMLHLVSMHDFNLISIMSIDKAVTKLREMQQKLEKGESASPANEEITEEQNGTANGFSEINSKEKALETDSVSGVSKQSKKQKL
T1 sequence (Q09028 whole entry partner): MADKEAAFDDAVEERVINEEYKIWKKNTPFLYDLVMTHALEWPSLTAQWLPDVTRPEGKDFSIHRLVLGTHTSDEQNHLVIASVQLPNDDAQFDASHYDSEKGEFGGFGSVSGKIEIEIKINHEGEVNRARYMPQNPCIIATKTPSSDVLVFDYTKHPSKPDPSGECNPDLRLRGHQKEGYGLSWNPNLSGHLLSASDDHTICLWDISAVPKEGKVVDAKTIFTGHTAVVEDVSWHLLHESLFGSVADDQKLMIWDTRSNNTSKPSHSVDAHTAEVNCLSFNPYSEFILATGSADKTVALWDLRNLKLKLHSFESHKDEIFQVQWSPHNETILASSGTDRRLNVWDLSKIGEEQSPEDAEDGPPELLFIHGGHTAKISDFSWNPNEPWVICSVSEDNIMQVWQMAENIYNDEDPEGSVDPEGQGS
T1 sequence (Q6ZN18 whole entry partner): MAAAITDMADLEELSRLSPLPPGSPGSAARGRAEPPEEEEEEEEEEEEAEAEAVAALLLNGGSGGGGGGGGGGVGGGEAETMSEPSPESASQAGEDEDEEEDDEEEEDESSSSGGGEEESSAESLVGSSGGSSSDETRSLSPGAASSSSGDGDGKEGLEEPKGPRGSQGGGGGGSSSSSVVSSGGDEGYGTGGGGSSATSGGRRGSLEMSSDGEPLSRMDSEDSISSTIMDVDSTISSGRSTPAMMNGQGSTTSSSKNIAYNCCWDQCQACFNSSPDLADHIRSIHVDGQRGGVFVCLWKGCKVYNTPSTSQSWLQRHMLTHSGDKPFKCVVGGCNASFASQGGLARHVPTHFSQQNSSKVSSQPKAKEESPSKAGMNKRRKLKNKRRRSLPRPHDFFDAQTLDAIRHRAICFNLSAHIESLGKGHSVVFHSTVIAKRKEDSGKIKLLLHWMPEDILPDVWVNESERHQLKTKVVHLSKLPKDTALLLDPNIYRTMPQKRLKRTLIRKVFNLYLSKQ

Row | SMILES | IC50 [1] [nM] | EC50 [2] [nM] | GI50 [3] [nM]
1 | CSc1cc(C)[nH]c(=O)c1Cn1ccc2c(Cl)c3c(c(C)c2c1=O)OC(C)([C@H]1CC[C@H](N(C)C)CC1)O3 (mixture of isomers) [Example 2, 9-Chloro-2-(Trans-4-(Dimethylamino)Cyclohexyl)-2,4-Dimethyl-6-((6-Methyl-4-(Methylthio)-2-Oxo-1,2-Dihydropyridin-3-Yl)Methyl)-[1,3]Dioxolo[4,5-g]Isoquinolin-] | 0.061 to 0.073 | – | –
2 | CSc1cc(C)[nH]c(=O)c1CN1CCc2c(Cl)c3c(c(C)c2C1=O)OC(C)([C@H]1CC[C@H](N(C)C)CC1)O3 (single isomer, unassigned) [Example 1, Peak 1, 9-Chloro-2-(Trans-4-(Dimethylamino)Cyclohexyl)-2,4-Dimethyl-6-((6-Methyl-4-(Methylthio)-2-Oxo-1,2-Dihydropyridin-3-Yl)Methyl)-7,8-Dihydro-[1,3]Dioxolo[4,5-g]Isoquinolin-5(6H)-One] | – | 0.849 to 1.13 | 5.7
